Literature values as cited in patent publication US7368585B2, “Synthetic techniques and intermediates for polyhydroxy dienyl lactones and mimics thereof” (The Trustees Of The University Of Pennsylvania, priority 1996, dated 2008).

What was measured:
[1] = test system: two-way mixed-lymphocyte reaction; settings: in vitro
murine splenocytes [2] = settings: in vitro
[3] = test system: cell development at the M phase; settings: by binding and stabilizing mitotic spindle microtubules
murine splenocytes [4] = settings: in vitro; remark: listed apart in the source
[5] = test system: graft-vs.-host splenomegaly response; settings: in vivo
[6] = test system: mitotic spindle microtubules; settings: compared with taxol

C=C/C=C\[C@H](C)[C@H](OC(N)=O)[C@@H](C)[C@H](O)[C@@H](C)C/C(C)=C\[C@H](C)[C@@H](O)[C@@H](C)/C=C\[C@@H](O)C[C@@H]1OC(=O)[C@H](C)[C@@H](O)[C@H]1C [(+)-discodermolide]
suppression of the two-way mixed-lymphocyte reaction [1]: suppresses | suppression of concanavalin A-induced mitogenesis of murine splenocytes (murine splenocytes [2]): suppresses | cell cycle effect [3]: arrests cell development at the M phase | associated cytotoxicity (murine splenocytes [4]): no associated cytotoxicity | potency in graft-vs.-host splenomegaly response relative to cyclosporin A and FK506 ([5]; F1 recipient mice): intermediate between those of cyclosporin A and FK506 | suppression of graft-vs.-host splenomegaly response ([5]; injection of parental splenocytes into F1 recipient mice): suppresses | microtubule binding affinity relative to taxol [6]: much higher
